This note sets out measurements from patent US20200352947A1, “USE OF SEROTONERGIC DRUGS TO TREAT VIRUS-INDUCED THROMBOCYTOPENIA” (NATIONAL UNIVERSITY OF SINGAPORE, priority 2017, published 2020).

In assay [1] the test system is DENV2-infected mice. Kind of assay: Platelet aggregation in peripheral blood smears of DENV2-infected WT mice. Type of assay: in vivo. Conditions: 10^6 pfu DENV2 IP, ketanserin 8 mg/kg IP 1 hour after infection, blood 24 hours post-infection, vs vehicle 1% DMSO. The procedure:
Images depict peripheral blood smears from DENV2-infected mice. Mice were infected via intraperitoneal route (IP) with 10^6 pfu. (A) Mock infected mice. (B) DENV-infected mice treated with vehicle control IP. (C) DENV-infected mice given ketanserin 8 mg/kg IP. Blood was taken via cheek bleed 24 hours post-infection, smeared onto glass slides, stained with eosin and methylene blue and viewed under light microscopy using a 100× magnification lens. Dengue induces platelet aggregation, while administration of ketanserin prevents this. A few individual platelets are indicated by arrows; platelet aggregates are circled by dashed lines. Scale bar=10 μm.
To test whether ketanserin could block platelet aggregation and/or prevent thrombocytopenia, a mouse model of dengue infection was used. WT mice were infected via intraperitoneal route (IP) with 10^6 pfu of DENV2 and, after 1 hour, treated with vehicle (1% DMSO) or ketanserin (8 mg/kg) IP. Blood was taken via cheek bleed 24 hours post-infection, smeared onto glass slides, stained with eosin and methylene blue and viewed under light microscopy using a 100× magnification lens. […] Selected red blood cells (RBC), platelets (arrows) and platelet aggregates (dashed lines) are labeled.

Assay [2] concerns JEV-infected mice. Kind of assay: Platelet counts in JEV-infected mice. Type of assay: in vivo. Conditions: 10^6 pfu JEV IP, ketanserin 8 mg/kg at 1 hour post-infection, 24 hours, n=5. The procedure:
Platelet counts of JEV infected mice. Mice were infected with 10^6 pfu of JEV intraperitoneally and were vehicle- or ketanserin-treated (8 mg/kg) at 1 hour post-infection. At 24 hours, blood was collected and platelet counts were measured. The drop in platelet counts induced by JEV was prevented by ketanserin treatment (n=5). Mean values are presented and error bars represent the SEM. P values were determined by Student's unpaired t test; *p<0.05.
Japanese encephalitis virus (JEV) is a flavivirus related to dengue, so the ability of ketanserin to inhibit JEV-induced thrombocytopenia was also tested. Mice were infected with 10^6 pfu of JEV IP, and were treated at 1 hour post-infection with vehicle (1% DMSO) or ketanserin (8 mg/kg). At 24 hours, blood was collected and platelet counts were measured. The reduction in platelet counts induced by JEV was inhibited by ketanserin treatment (FIG. 14).

Assay [3] concerns human platelets. In words: Platelet activation (CD41/CD62P flow cytometry) in stimulated human whole blood. In kind it is cell-based. As to conditions: ketanserin 100 nM or 500 nM, 15 min; n=4. The procedure: (A) Whole blood from healthy human volunteers was isolated and stimulated with DENV2, serotonin, or DENV2+serotonin for 15 min. Cells were then fixed and stained for platelet markers CD41 and CD62P and analyzed by flow cytometry. DENV raised the activation levels of platelets. […] (B) Human whole blood was stimulated with DENV2, mast cells (MCs) or DENV2+MCs in the presence of vehicle or ketanserin (100 nM or 500 nM) for 15 min prior to assessment of platelet activation. […] Mean values are presented and error bars represent the SEM. P values were determined by one-way ANOVA; *P<0.05, ** P<0.01, ***P<0.001, ****P<0.0001, ns: non-significant.
Additionally, products from DENV-stimulated human mast cells promoted platelet activation, dependent on platelet 5HT2A receptor, since this effect was abolished by ketanserin (FIG. 9B). […] Furthermore, ketanserin is effective in reversing DENV-induced human platelet activation.

The test system of assay [4] is DENV2-infected mice. In words: Platelet counts (thrombocytopenia) in DENV2-infected WT mice. In kind it is in vivo. Conditions: 10^6 pfu DENV2 IP, 24 hours post-infection, n=5. The method, then:
Platelet counts of DENV2 infected mice. Mice were infected via intraperitoneal route (IP) with 10^6 plaque forming units (pfu) and were given either vehicle (1% DMSO) or ketanserin 8 mg/kg IP. Blood was taken via cheek bleed 24 hours post-infection and platelet counts were measured using an automated hematology analyzer. DENV2 infection induces thrombocytopenia, but ketanserin treatment is able to prevent thrombocytopenia (n=5). Mean values are presented and error bars represent the SEM. P values were determined by Student's unpaired t test; ***P<0.001, ****P<0.0001.
Platelet counts of DENV2 infected mice. Mice were infected IP with 10^6 pfu of DENV2 and were given either vehicle, the 5HT1A antagonist WAY-100135, or either of the 5HT2A antagonists, ketanserin and sarpogrelate. Blood was taken via cheek bleed 24 hours post-infection and platelet counts were measured using an automated hematology analyzer. DENV2 infection induced thrombocytopenia that was able to be prevented through administration of serotonin receptor antagonists (n=5). Mean values are presented and error bars represent the SEM. P values were determined by one-way ANOVA; ***p<0.001, ****P<0.0001.
WT mice were infected via intraperitoneal route (IP) with 10^6 plaque forming units (pfu) of DENV2 and were given either vehicle (1% DMSO) or ketanserin (8 mg/kg) IP. Blood was taken via cheek bleed 24 hours post-infection and platelet counts were measured using an automated hematology analyzer.
One limitation of the experimental protocol in Examples 10 and 11 is that the vehicle used to deliver ketanserin in mice, DMSO, can itself interfere with platelet aggregation [Rosenblum, W. I. & El-Sabban. F. Stroke 13, 35-39 (1982)]. This difference can be observed by comparing the severity of thrombocytopenia in dengue-infected mice between FIGS. 1 and 10. Accordingly, newer serotonin receptor antagonists that are more soluble in saline were tested, to determine whether a similar effect is seen even without the confounding effects of DMSO. Mice were infected IP with 10^6 pfu of DENV2 and were given either vehicle, the 5HT1A antagonist WAY-100135 (3 mg/kg), or one of the 5HT2A antagonists ketanserin (8 mg/kg) or sarpogrelate (3 mg/kg). Blood was taken via cheek bleed 24 hours post-infection and platelet counts were measured using an automated hematology analyzer.

For `O=C(c1ccc(F)cc1)C1CCN(CCn2c(=O)[nH]c3ccccc3c2=O)CC1` [ketanserin, 3-[2-[4-(4-fluorobenzoyl)piperidin-1-yl]ethyl]-1H-quinazoline-2,4-dione], the “DENV-induced platelet aggregation in peripheral blood smears” value in assay [1] is recorded as “prevented”. The “reduction in platelet counts induced by JEV” value in assay [2] is listed as “inhibited”. In addition, the “platelet activation in human whole blood stimulated with DENV2+mast cells” value in assay [3] is reported as “abolished the significant increase in platelet activation”. Besides, the “platelet counts (DENV2-induced thrombocytopenia)” value in assay [4] (WT mice, ketanserin 8 mg/kg IP, vehicle 1% DMSO) is “did not show significantly reduced platelets compared to control”; in assay [4] (mice, WAY-100135 3 mg/kg, ketanserin 8 mg/kg or sarpogrelate 3 mg/kg), “prevented”.
